From the OPERA property sets (Mansouri et al. 2018)
In brackets after ≈: the same amount, converted by molar mass.

Conditions: 25 °C

| SMILES | solubility |
| --- | --- |
| COC(=O)c1ccccc1CS(=O)(=O)NC(=O)Nc1nc(OC)cc(OC)n1 | 0.292 mM (≈ 120 µg/mL) |
| O=C1C2CC=CCC2C(=O)N1SC(Cl)(Cl)Cl (stereo not drawn) | 0.017 mM (≈ 5.1 µg/mL) |
| CCCSP(=O)(OCC)SCCC | 3.09 mM (≈ 750 µg/mL) |
| c1ccc2[nH]c(-c3cscn3)nc2c1 | 0.248 mM (≈ 50 µg/mL) |
| COP(=O)(NC(C)=O)SC (stereo not drawn) | 4470 mM (≈ 818000 µg/mL) |
| CC(C)[C@H](C(=O)OC(C#N)c1cccc(Oc2ccccc2)c1)c1ccc(OC(F)F)cc1 (stereo partly drawn) | 0.000133 mM (≈ 0.06 µg/mL) |
| CNC(=O)Oc1ccc(SC)c(C)c1 | 0.107 mM (≈ 22.5 µg/mL) |
| CC(C)NC(=O)N1CC(=O)N(c2cc(Cl)cc(Cl)c2)C1=O | 0.0421 mM (≈ 13.9 µg/mL) |
| Cn1c(=O)on(-c2ccc(Cl)c(Cl)c2)c1=O | 0.00575 mM (≈ 1.5 µg/mL) |
| CCN(CC)C(=O)SCc1ccc(Cl)cc1 | 0.109 mM (≈ 28 µg/mL) |
| CC(C)(C)C(=O)C(Oc1ccc(Cl)cc1)n1cncn1 (stereo not drawn) | 0.243 mM (≈ 71.5 µg/mL) |
| CC(C)C(Nc1ccc(C(F)(F)F)cc1Cl)C(=O)OC(C#N)c1cccc(Oc2ccccc2)c1 (stereo not drawn) | 6.29e-06 mM (≈ 0.00316 µg/mL) |
| COC(=O)Nc1cccc(OC(=O)Nc2cccc(C)c2)c1 | 0.0161 mM (≈ 4.85 µg/mL) |
